From patent US20050026968A1, “Heterocyclic amides with anti-tuberculosis activity” (priority 2003, published 2005)
≈ marks a conversion by molar mass, not a printed value. Where two headings read alike, the source gives them in different places.

System: M. tuberculosis H37Ra
Assay: MIC against M. tuberculosis H37Ra, micro broth dilution in microtiter plates
[1] = Mycobacterium tuberculosis, H37RA, 168 h, read-out: TB MIC, Table 1, M. tuberculosis H37Ra, 7 days, MIC90 (>90% inhibition of growth)
[2] = Mycobacterium tuberculosis, H37RA, Table 4, M. tuberculosis H37Ra, MIC90

Row | Structure (SMILES) | MIC [1] | MIC [2] | also measured
1 | COc1ccc(NC(=O)c2ccc([N+](=O)[O-])o2)cc1Cl [Compound 1] | – | – | MIC against whole cells: 1.6 µg/mL (≈ 5.39 µM)
2 | O=C(NC1CCCCC1)c1ccc([N+](=O)[O-])o1 [Compound 15, 5-Nitro-furan-2-carboxylic acid cyclohexylamide] | 3.1 µg/mL (≈ 13 µM) | – | –
3 | O=C(NC12CC3CC(CC(C3)C1)C2)c1ccc([N+](=O)[O-])o1 [Compound 16, 5-Nitro-furan-2-carboxylic acid adamantan-1-ylamide] | 3.1 µg/mL (≈ 10.7 µM) | – | –
4 | O=C(Nc1ccccc1)c1ccc([N+](=O)[O-])o1 [Compound 17, 5-Nitro-furan-2-carboxylic acid phenylamide] | 0.8 µg/mL (≈ 3.45 µM) | – | –
5 | COc1ccc(CNC(=O)c2ccc([N+](=O)[O-])o2)cc1 [Compound 20, 5-Nitro-furan-2-carboxylic acid 4-methoxy-benzylamide] | 0.1 µg/mL (≈ 0.362 µM) | – | –
6 | O=C(NCc1ccccc1Cl)c1ccc([N+](=O)[O-])o1 [Compound 21, 5-Nitro-furan-2-carboxylic acid 2-chloro-benzylamide] | 1.6 µg/mL (≈ 5.7 µM) | – | –
7 | COc1cc(CNC(=O)c2ccc([N+](=O)[O-])o2)cc(OC)c1OC [Compound 24, 5-Nitro-furan-2-carboxylic acid 3,4,5-trimethoxy-benzylamide] | 0.8 µg/mL (≈ 2.38 µM) | – | –
8 | O=C(NC1CCc2ccccc21)c1ccc([N+](=O)[O-])o1 (centres unmarked) [Compound 26, 5-Nitro-furan-2-carboxylic acid indan-1-ylamide] | 3.1 µg/mL (≈ 11.4 µM) | – | –
9 | O=C(NCCc1ccccc1)c1ccc([N+](=O)[O-])o1 [Compound 27, 5-Nitro-furan-2-carboxylic acid phenethyl-amide] | 1.6 µg/mL (≈ 6.15 µM) | – | –
10 | COc1ccc(CNC(=O)c2ccc(Br)o2)cc1 [Compound 32, 5-Bromo-furan-2-carboxylic acid 4-methoxy-benzylamide] | 200 µg/mL (≈ 645 µM) | – | –
11 | COc1cccc(NC(=O)c2ccc(S(=O)(=O)O)o2)c1 [Compound 34, 5-(3-Methoxy-phenylcarbamoyl)-furan-2-sulfonic acid] | 200 µg/mL (≈ 673 µM) | – | –
12 | O=C(Nc1cccc(O)c1)c1ccc([N+](=O)[O-])o1 [Compound 35, 5-Nitro-furan-2-carboxylic acid(3-hydroxy-phenyl)-amide] | 1.6 µg/mL (≈ 6.45 µM) | – | –
13 | COc1cccc(NC(=O)c2ccc([S+]([O-])c3ccccc3)o2)c1 (centres unmarked) [Compound 38, 5-Benzenesulfinyl-furan-2-carboxylic acid(3-methoxy-phenyl)-amide] | 6.25 µg/mL (≈ 18.3 µM) | – | –
14 | COc1cccc(NC(=O)c2ccc(S(=O)(=O)c3ccccc3)o2)c1 [Compound 39, 5-Benzenesulfonyl-furan-2-carboxylic acid(3-methoxy-phenyl)-amide] | 6.25 µg/mL (≈ 17.5 µM) | – | –
15 | CCOC(=O)c1ccc(C(=O)Nc2cccc(OC)c2)o1 [Compound 40, 5-(3-Methoxy-phenylcarbamoyl)-furan-2-carboxylic acid ethyl ester] | 400 µg/mL (≈ 1380 µM) | – | –
16 | CN(C(=O)c1ccc([N+](=O)[O-])o1)c1ccccc1 [Compound 41] | – | – | MIC: 3.1 µg/mL (≈ 12.6 µM)
17 | O=C(Nc1cnccn1)c1ccc([N+](=O)[O-])o1 [Compound 48, 5-Nitro-furan-2-carboxylic acid pyrazin-2-ylamide] | 6.25 µg/mL (≈ 26.7 µM) | – | –
18 | COc1ccccc1CNC(=O)c1ccc([N+](=O)[O-])o1 [Compound 52, 5-nitro-furan-2-carboxylic acid 2-methoxy-benzylamide] | 1.6 µg/mL (≈ 5.79 µM) | – | –

Row | Structure (SMILES) | MIC [1] | MIC [2] | also measured
19 | COc1cccc(CNC(=O)c2ccc([N+](=O)[O-])o2)c1OC [Compound 53, 5-nitro-furan-2-carboxylic acid 2,3-dimethoxy-benzylamide] | 1.2 µg/mL (≈ 3.92 µM) | – | –
20 | O=C(Nc1ccc(N2CCOCC2)cc1)c1ccc([N+](=O)[O-])o1 [Compound 54, 5-Nitro-furan-2-carboxylic acid(4-morpholin-4-yl-phenyl)-amide] | – | 1.6 µg/mL (≈ 5.04 µM) | –
21 | CN1CCN(c2ccc(NC(=O)c3ccc([N+](=O)[O-])o3)cc2)CC1 [Compound 55, 5-Nitro-furan-2-carboxylic acid[4-(4-methyl-piperazin-1-yl)-phenyl]-amide] | – | 6.25 µg/mL (≈ 18.9 µM) | –
22 | O=C(Nc1ccc(N2CCN(Cc3ccccc3)CC2)cc1)c1ccc([N+](=O)[O-])o1 [Compound 56, 5-Nitro-furan-2-carboxylic acid[4-(4-benzyl-piperazin-1-yl)-phenyl]-amide] | – | 0.8 µg/mL (≈ 1.97 µM) | –
23 | O=C(Nc1ccc(N2CCC(Cc3ccccc3)CC2)cc1)c1ccc([N+](=O)[O-])o1 [Compound 57, 5-Nitro-furan-2-carboxylic acid[4-(4-benzyl-piperidin-1-y1)-phenyl]-amide] | – | 3.1 µg/mL (≈ 7.65 µM) | –
24 | O=C(Nc1ccc(N2CCN(c3ccccn3)CC2)cc1)c1ccc([N+](=O)[O-])o1 [Compound 58, 5-Nitro-furan-2-carboxylic acid. [4-(4-pyridin-2-yl-piperazin-1-yl)-phenyl]-amide] | – | 0.4 to 0.8 µg/mL (≈ 1.02 to 2.03 µM) | –
25 | O=C(Nc1cccc(N2CCOCC2)c1)c1ccc([N+](=O)[O-])o1 [Compound 59, 5-Nitro-furan-2-carboxylic acid(3-morpholin-4-yl-phenyl)-amide] | – | 3.1 µg/mL (≈ 9.77 µM) | –
26 | CN1CCN(c2cccc(NC(=O)c3ccc([N+](=O)[O-])o3)c2)CC1 [Compound 60, 5-Nitro-furan-2-carboxylic acid[3-(4-methyl-piperazin-1-yl)-phenyl]-amide] | – | 12.5 µg/mL (≈ 37.8 µM) | –
27 | O=C(Nc1cccc(N2CCN(Cc3ccccc3)CC2)c1)c1ccc([N+](=O)[O-])o1 [Compound 61, 5-Nitro-furan-2-carboxylic acid[3-(4-benzyl-piperazin-1-yl)-phenyl]-amide] | – | 12.5 µg/mL (≈ 30.8 µM) | –
28 | O=C(Nc1cccc(N2CCC(Cc3ccccc3)CC2)c1)c1ccc([N+](=O)[O-])o1 [Compound 62, 5-Nitro-furan-2-carboxylic acid[3-(4-benzyl-piperidin-1-yl)-phenyl]-amide] | – | 12.5 µg/mL (≈ 30.8 µM) | –
29 | O=C(Nc1cccc(N2CCN(c3ccccn3)CC2)c1)c1ccc([N+](=O)[O-])o1 [Compound 63, 5-Nitro-furan-2-carboxylic acid[3-(4-pyridin-2-yl-piperazin-1-yl)-phenyl]-amide] | – | 1.6 µg/mL (≈ 4.07 µM) | –
30 | O=C(NCc1ccc(N2CCOCC2)cc1)c1ccc([N+](=O)[O-])o1 [Compound 64, 5-Nitro-furan-2-carboxylic acid 4-morpholin-4-yl-benzylamide] | – | 0.1 µg/mL (≈ 0.302 µM) | –
31 | O=C(NCc1ccc(N2CCN(Cc3ccccc3)CC2)cc1)c1ccc([N+](=O)[O-])o1 [Compound 66, 5-Nitro-furan-2-carboxy1ic acid 4-(4-benzyl-piperazin-1-yl)-benzylamide] | – | 0.0062 µg/mL (≈ 0.0147 µM) | MIC (Mycobacterium tuberculosis, H37RA): 0.006 µg/mL (≈ 0.0143 µM); MIC activity compared with classical TB drugs (FIG. 1) (against H37Ra, in words): more active than isoniazid
32 | O=C(NCc1ccc(N2CCC(Cc3ccccc3)CC2)cc1)c1ccc([N+](=O)[O-])o1 [Compound 67, 5-Nitro-furan-2-carboxylic acid 4-(4-benzyl-piperidin-1-yl)-benzylamide] | – | < 0.1 µg/mL | –
33 | CN1CCN(c2cccc(CNC(=O)c3ccc([N+](=O)[O-])o3)c2)CC1 [Compound 68, 5-Nitro-furan-2-carboxylic acid 3-(4-methyl-piperazin-1-yl)-benzylamide] | – | 3.1 µg/mL (≈ 9 µM) | –
34 | O=C(NCc1cccc(N2CCN(Cc3ccccc3)CC2)c1)c1ccc([N+](=O)[O-])o1 [Compound 69, 5-Nitro-furan-2-carboxylic acid 3-(4-benzyl-piperazin-1-yl)-benzylamide] | – | < 0.1 µg/mL | –
35 | O=C(NCc1cccc(N2CCC(Cc3ccccc3)CC2)c1)c1ccc([N+](=O)[O-])o1 [Compound 70, 5-Nitro-furan-2-carboxylic acid 3-(4-benzyl-piperidin-1-yl)-benzylamide] | – | 0.0062 µg/mL (≈ 0.0148 µM) | –
36 | O=C(c1ccc([N+](=O)[O-])o1)N1Cc2ccccc2C1 [Compound 71] | – | 0.78 µg/mL (≈ 3.02 µM) | –
